Measurements: US12054498B2, “Heteroaromatic macrocyclic ether chemotherapeutic agents” (Nuvalent, Inc., priority 2020, dated 2024)

Experiments:
ALK-wt = target: T1, ALK-wt (Homo sapiens, UniProt Q9UM73); experiment: Biochemical kinase assay, ALK-wt kinase domain; settings: apparent inhibitory constant, Morrison equation; ATP 2 mM in substrate solution; read-out: ALK-wt Ki^app
T1 construct: purchased Carna 08-518
Outline: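 Compound in DMSO added first, then substrate solution (ATP 2 mM; AQT0101 or AQT0104, 26 μM; pH 7.5 HEPES, 10 mM MgCl2), then kinase solution with enzyme at 0.5–3 nM depending on construct. Kinetic read every 2 min for 120 min at 30° C; Ki^app by Morrison regression.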

ALK L1196M/G1202R = target: T2, ALK L1196M/G1202R (Homo sapiens, UniProt Q9UM73, G1202R/L1196M); experiment: Biochemical kinase assay, ALK L1196M/G1202R kinase domain; settings: apparent inhibitory constant, Morrison equation; ATP 2 mM in substrate solution; read-out: ALK-L1196M-G1202R Ki^app
T2 construct: purchased SignalChem A19-12NG
Outline: (§1)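 Continuous fluorescence read (λ=485 nm, every 2 min, 120 min, 30° C). Substrate solution held 2 mM ATP and 26 μM AQT0101 (ROS1/ALK) or AQT0104 (TRKA). Kinase solution: ROS1-G2032R 0.5 nM, ROS1-wt 0.6 nM, TRKA 1 nM, ALK double mutant 3 nM. Initial linear rates fed a Morrison-equation fit giving Ki^app.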

ROS1-wt = target: T3, ROS1-wt (Homo sapiens, UniProt P08922); experiment: Biochemical kinase assay, ROS1-wt kinase domain; settings: apparent inhibitory constant, Morrison equation; ATP 2 mM in substrate solution; read-out: ROS1-wt Ki^app
T3 construct: purchased Carna 08-163
Outline: (§2)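 Kinetic read: 485 nm, 2-min intervals, 120 min, 30 °C. Substrate mix — ATP 2 mM, AQT0101 26 μM, HEPES 50 mM pH 7.5, MgCl2 10 mM. Output: Ki^app, Morrison equation.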

ROS1-G2032R = target: T4, ROS1-G2032R (Homo sapiens, UniProt P08922, G2032R); experiment: Biochemical kinase assay, ROS1-G2032R kinase domain; settings: apparent inhibitory constant, Morrison equation; ATP 2 mM in substrate solution; read-out: ROS1-G2032R Ki^app
T4 construct: purchased SignalChem R14-12BG
Outline: as §2

TRKA-wt = target: T5, TRKA-wt (Homo sapiens, UniProt P04629); experiment: Biochemical kinase assay, TRKA-wt kinase domain; settings: apparent inhibitory constant, Morrison equation; ATP 2 mM in substrate solution; read-out: TRKA-wt Ki^app
T5 construct: or TRKA-wt (1 nM, BPS Bio, 40280) kinase domains in buffer; purchased BPS Bio 40280
Outline: as §1

[1] = target: T6, Ba/F3 cells CD74-ROS1 wild-type (wt) (Homo sapiens, UniProt P08922); experiment: Ba/F3 cell proliferation assay, CD74-ROS1 wild-type; format: cell-based; settings: 72 hours, CellTiter-Glo
T6 construct: fusion of the C-terminus of ROS1 with the N-terminus of various partner proteins; host or cells: Ba/F3 (RIKEN), retroviral pMSCV-puro; the other entry of the earlier key: CD74 (P04233, HLA class II histocompatibility antigen gamma chain)
Outline: (§3)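 Cells were seeded 1 day, then exposed to a 3-fold compound dilution series for 72 hours. Viability was read by CellTiter-Glo luminescence; IC50 came from four-parameter logistic fitting of percent inhibition.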

[2] = target: T7, Ba/F3 cells CD74-ROS1 G2032R (Homo sapiens, UniProt P08922, G2032R); experiment: Ba/F3 cell proliferation assay, CD74-ROS1 G2032R; format: cell-based; settings: 72 hours, CellTiter-Glo
T7 construct: fusion of the C-terminus of ROS1 with the N-terminus of various partner proteins; host or cells: Ba/F3 (RIKEN), retroviral pMSCV-puro; the other entry of the earlier key: CD74 (P04233, HLA class II histocompatibility antigen gamma chain)
Outline: as §3

[3] = target: T8, Ba/F3 cells EML4-ALK wt (variant 1) (Homo sapiens, UniProt Q9UM73); experiment: Ba/F3 cell proliferation assay, EML4-ALK wt (variant 1); format: cell-based; settings: 72 hours, CellTiter-Glo
T8 construct: echinoderm microtubule-associated protein-like 4 (EML4) gene and the ALK tyrosine kinase domain; host or cells: Ba/F3 (RIKEN), retroviral pMSCV-puro; the other entry of the earlier key: EML4 (Q9HC35, Echinoderm microtubule-associated protein-like 4)
Outline: (§4)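 First, Ba/F3 cells were made IL-3-independent via retroviral fusion expression and puromycin selection, then cloned by single-cell dilution. Next, 1,000 cells/well were plated for a day, exposed to 3-fold diluted compounds for 72 hours, and lysed with CellTiter-Glo. Finally, IC50 was fitted by four-parameter logistic regression.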

[4] = target: T9, Ba/F3 cells EML4-ALK L1196M/G1202R (variant 1) (Homo sapiens, UniProt Q9UM73, G1202R/L1196M); experiment: Ba/F3 cell proliferation assay, EML4-ALK L1196M/G1202R (variant 1); format: cell-based; settings: 72 hours, CellTiter-Glo
T9 construct: echinoderm microtubule-associated protein-like 4 (EML4) gene and the ALK tyrosine kinase domain; host or cells: Ba/F3 (RIKEN), retroviral pMSCV-puro; the other entry of the earlier key: EML4 (Q9HC35, Echinoderm microtubule-associated protein-like 4)
Outline: as §4

Ba/F3 cells TPM3-TRKA = target: T10, Ba/F3 cells TPM3-TRKA (Homo sapiens, UniProt P04629); experiment: Ba/F3 cell proliferation assay, TPM3-TRKA; format: cell-based; settings: 72 hours, CellTiter-Glo, read-out: TPM3-NTRK1-wt IC50
T10 construct: host or cells: Ba/F3 (RIKEN), retroviral pMSCV-puro; the other entry of the earlier key: TPM3 (P06753, Tropomyosin alpha-3 chain)
Outline: as §4

[5] = system: TPM3-NTRK1-wt IC50 / primary target IC50 (e.g. CD74-ROS1-wt); experiment: TRKA selectivity in Ba/F3 cells (TRKA potency divided by primary target potency); format: cell-based; settings: for TPM3-NTRK1-wt/CD74-ROS1-G2032R selectivity ratio: TRKA potency / CD74-ROS1-G2032R potency; for TPM3-NTRK1-wt/CD74-ROS1-wt selectivity ratio: TRKA potency / CD74-ROS1-wt potency; for TPM3-NTRK1-wt/EML4-ALK-L1196M-G1202R selectivity ratio: TRKA potency / EML4-ALK-L1196M-G1202R potency; for TPM3-NTRK1-wt/EML4-ALK-wt selectivity ratio: TRKA potency / EML4-ALK-wt potency
Description: TRKA selectivity was calculated by dividing a compound's TRKA potency by its primary target potency (e.g. TPM3-NTRK1-wt IC50/CD74-ROS1-wt IC50). Compound selectivity can be interpreted by binning ratio values: bin A for very high selectivity, ratio >30-fold; bin B for high selectivity, ratio >10-fold; bin C for moderate selectivity, ratio ≥1; and bin D for low selectivity, ratio <1. […] (nd=not determined).

T10 sequence (P04629 510-796 limits assumed): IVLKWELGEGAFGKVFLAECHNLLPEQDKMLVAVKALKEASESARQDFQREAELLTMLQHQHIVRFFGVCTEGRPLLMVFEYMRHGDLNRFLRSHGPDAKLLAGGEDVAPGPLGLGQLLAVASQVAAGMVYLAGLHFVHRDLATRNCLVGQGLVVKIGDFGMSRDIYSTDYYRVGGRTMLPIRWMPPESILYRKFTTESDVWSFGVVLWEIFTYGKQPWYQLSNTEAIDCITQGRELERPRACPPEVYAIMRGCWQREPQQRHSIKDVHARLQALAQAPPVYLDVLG
T5 sequence (P04629 510-781 limits assumed): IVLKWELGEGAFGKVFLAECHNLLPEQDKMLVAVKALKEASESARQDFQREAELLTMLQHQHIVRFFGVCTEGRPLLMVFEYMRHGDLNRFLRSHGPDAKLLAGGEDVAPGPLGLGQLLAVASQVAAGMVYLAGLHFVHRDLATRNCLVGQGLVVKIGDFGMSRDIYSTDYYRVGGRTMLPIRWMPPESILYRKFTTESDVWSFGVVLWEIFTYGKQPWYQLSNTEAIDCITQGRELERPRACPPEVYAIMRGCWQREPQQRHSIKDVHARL
T9 sequence (Q9UM73 with tags, fused parts or gaps L1196M/G1202R): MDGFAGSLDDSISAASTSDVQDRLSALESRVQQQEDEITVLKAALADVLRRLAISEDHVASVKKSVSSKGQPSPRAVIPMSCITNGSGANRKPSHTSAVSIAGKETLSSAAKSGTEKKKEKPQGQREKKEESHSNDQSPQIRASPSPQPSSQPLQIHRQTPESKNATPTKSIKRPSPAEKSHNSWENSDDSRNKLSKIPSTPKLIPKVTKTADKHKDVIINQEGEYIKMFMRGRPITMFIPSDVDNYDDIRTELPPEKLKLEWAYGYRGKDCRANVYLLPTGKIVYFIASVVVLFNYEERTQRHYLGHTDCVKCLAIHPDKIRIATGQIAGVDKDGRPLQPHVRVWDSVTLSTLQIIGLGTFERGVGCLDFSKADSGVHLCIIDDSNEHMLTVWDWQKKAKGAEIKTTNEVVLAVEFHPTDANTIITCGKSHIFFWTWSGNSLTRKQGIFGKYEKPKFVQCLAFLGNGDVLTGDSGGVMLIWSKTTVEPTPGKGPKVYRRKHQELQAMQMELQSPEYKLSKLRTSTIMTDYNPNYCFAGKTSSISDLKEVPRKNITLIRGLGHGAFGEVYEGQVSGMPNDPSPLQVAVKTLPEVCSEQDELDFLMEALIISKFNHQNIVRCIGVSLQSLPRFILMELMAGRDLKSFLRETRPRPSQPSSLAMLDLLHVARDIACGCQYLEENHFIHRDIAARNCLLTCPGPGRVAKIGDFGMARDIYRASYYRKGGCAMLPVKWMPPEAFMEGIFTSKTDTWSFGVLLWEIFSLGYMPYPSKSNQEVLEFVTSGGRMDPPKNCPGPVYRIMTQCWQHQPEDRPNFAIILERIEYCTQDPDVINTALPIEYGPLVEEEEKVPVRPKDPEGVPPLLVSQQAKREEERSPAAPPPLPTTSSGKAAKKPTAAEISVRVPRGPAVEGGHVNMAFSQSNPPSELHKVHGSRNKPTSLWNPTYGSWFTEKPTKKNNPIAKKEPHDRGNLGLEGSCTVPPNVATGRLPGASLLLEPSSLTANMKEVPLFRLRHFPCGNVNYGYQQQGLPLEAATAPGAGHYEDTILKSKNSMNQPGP
T2 sequence (Q9UM73 1116-1392 L1196M/G1202R limits assumed): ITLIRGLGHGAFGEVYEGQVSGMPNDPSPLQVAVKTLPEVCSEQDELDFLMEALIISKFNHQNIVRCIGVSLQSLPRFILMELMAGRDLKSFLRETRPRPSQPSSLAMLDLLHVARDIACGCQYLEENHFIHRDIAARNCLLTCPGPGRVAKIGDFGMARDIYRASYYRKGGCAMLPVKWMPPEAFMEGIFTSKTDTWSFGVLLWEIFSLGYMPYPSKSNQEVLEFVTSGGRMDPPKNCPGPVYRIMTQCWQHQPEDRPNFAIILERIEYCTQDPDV
T4 sequence (P08922 1945-2222 G2032R limits assumed): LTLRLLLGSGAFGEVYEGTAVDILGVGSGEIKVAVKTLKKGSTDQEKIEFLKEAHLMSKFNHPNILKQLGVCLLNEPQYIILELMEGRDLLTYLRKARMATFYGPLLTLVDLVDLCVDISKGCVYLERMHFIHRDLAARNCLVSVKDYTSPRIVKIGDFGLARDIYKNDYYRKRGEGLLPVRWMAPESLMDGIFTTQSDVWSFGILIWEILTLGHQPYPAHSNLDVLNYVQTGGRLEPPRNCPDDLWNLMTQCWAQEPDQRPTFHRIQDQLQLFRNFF
T8 sequence (Q9UM73 with tags, fused parts or gaps): as the sequence (Q9UM73 with tags, fused parts or gaps L1196M/G1202R) above, with M635L, R641G counted along it
T6 sequence (P08922 1883-2347 limits assumed): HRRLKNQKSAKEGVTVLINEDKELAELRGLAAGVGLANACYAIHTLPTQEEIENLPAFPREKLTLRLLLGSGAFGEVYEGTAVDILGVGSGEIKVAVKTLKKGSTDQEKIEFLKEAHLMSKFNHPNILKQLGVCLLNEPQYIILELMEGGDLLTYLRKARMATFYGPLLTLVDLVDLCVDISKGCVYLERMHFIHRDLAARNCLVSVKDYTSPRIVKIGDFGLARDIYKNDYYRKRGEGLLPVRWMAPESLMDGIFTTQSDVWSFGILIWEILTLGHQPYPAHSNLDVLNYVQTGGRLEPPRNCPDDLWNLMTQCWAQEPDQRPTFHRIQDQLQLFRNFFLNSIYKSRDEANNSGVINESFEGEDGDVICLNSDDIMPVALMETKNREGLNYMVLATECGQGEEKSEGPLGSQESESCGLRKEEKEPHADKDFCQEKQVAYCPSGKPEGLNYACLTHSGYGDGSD
T3 sequence (P08922 1945-2222 limits assumed): as the sequence (P08922 1945-2222 G2032R limits assumed) above, with R88G counted along it
T1 sequence (Q9UM73 1116-1392 limits assumed): as the sequence (Q9UM73 1116-1392 L1196M/G1202R limits assumed) above, with M81L, R87G counted along it
T7 sequence (P08922 1883-2347 G2032R limits assumed): as the sequence (P08922 1883-2347 limits assumed) above, with G150R counted along it

SMILES	Ki (ALK-wt) [nM]	Ki (ALK L1196M/G1202R) [nM]	Ki (ROS1-wt) [nM]	Ki (ROS1-G2032R) [nM]	Ki (TRKA-wt) [nM]	IC50 [1] [nM]	IC50 [2] [nM]	IC50 [3] [nM]	IC50 [4] [nM]	IC50 (Ba/F3 cells TPM3-TRKA) [nM]	TPM3-NTRK1-wt/CD74-ROS1-G2032R selectivity ratio [5]	TPM3-NTRK1-wt/CD74-ROS1-wt selectivity ratio [5]	TPM3-NTRK1-wt/EML4-ALK-L1196M-G1202R selectivity ratio [5]	TPM3-NTRK1-wt/EML4-ALK-wt selectivity ratio [5]
C[C@H]1Oc2cc(cnc2N)-c2c(C#N)noc2Cc2nn(C)nc2-c2ccc(F)cc21 [Example 25, (19R)-22-amino-16-fluoro-10,19-dimethyl-5,20-dioxa-4,9,10,11,23-pentaazapentacyclo[19.3,1.0^2,^6.0^8,^12.0^13,^18]pentacosa-1(24),2(6),3,8,11,13,15,17,21(25),22-decaene-3-carbonitrile]	< 50	50 to 500	< 50	50 to 500	> 500	0.1 to 50	0.1 to 50	50 to 500	> 500	> 500	A (bin A for very high selectivity, ratio >30-fold)	A (bin A for very high selectivity, ratio >30-fold)	C (bin C for moderate selectivity, ratio ≥1)	A (bin A for very high selectivity, ratio >30-fold)
Cc1nn(CC2CC2)c2c1Cn1nccc1-c1ccc(F)cc1[C@@H](C)Oc1cc-2cnc1N [Example 45, (19R)-3-(cyclopropylmethyl)-16-fluoro-5,19-dimethyl-20-oxa-3,4,8,9,23-pentaazapentacyclo[19.3.1.0^2,^6.0^8,^12.0^13,^18]pentacosa-1(24),2(6),4,9,11,13,15,17,21(25),22-decaen-22-amine]	< 50	< 50	< 50	< 50	> 500	0.1 to 50	0.1 to 50	0.1 to 50	50 to 500	> 500	A (bin A for very high selectivity, ratio >30-fold)	A (bin A for very high selectivity, ratio >30-fold)	A (bin A for very high selectivity, ratio >30-fold)	A (bin A for very high selectivity, ratio >30-fold)
CCn1ncc2c1-c1cnc(N)c(c1)O[C@H](C)c1cc(F)ccc1-n1ccnc1C2 [Example 42, (19R)-3-ethyl-16-fluoro-19-methyl-20-oxa-3,4,9,12,23-pentaazapentacyclo[19.3.1.0^2,^6.0^8,^12.0^13,^18]pentacosa-1(24),2(6),4,8,10,13,15,17,21(25),22-decaen-22-amine]	< 50	< 50	< 50	< 50	50 to 500	0.1 to 50	0.1 to 50	0.1 to 50	50 to 500	50 to 500	A (bin A for very high selectivity, ratio >30-fold)	A (bin A for very high selectivity, ratio >30-fold)	C (bin C for moderate selectivity, ratio ≥1)	B (bin B for high selectivity, ratio >10-fold)
CCn1ncc2c1-c1cnc(N)c(c1)O[C@H](C)c1cc(F)ccc1-c1cn(C)nc1C2 [Example 9, (19R)-3-ethyl-16-fluoro-10,19-dimethyl-20-oxa-3,4,9,10,23-pentaazapentacyclo[19.3,1.0^2,^6.0^8,^12.0^13,^18]pentacosa-1(24),2(6),4,8,11,13,15,17,21 (25),22-decaen-22-amine]	< 50	< 50	< 50	< 50	50 to 500	0.1 to 50	0.1 to 50	0.1 to 50	0.1 to 50	> 500	A (bin A for very high selectivity, ratio >30-fold)	A (bin A for very high selectivity, ratio >30-fold)	B (bin B for high selectivity, ratio >10-fold)	A (bin A for very high selectivity, ratio >30-fold)
CCn1nnc2c1-c1cnc(N)c(c1)O[C@H](C)c1cc(F)ccc1-c1cc(Cl)nn1C2 [Example 54, (19R)-10-chloro-3-ethyl-16-fluoro-19-methyl-20-oxa-3,4,5,8,9,23-hexaazapentacyclo[19.3.1.0^2,^6.0^8,^12.0^13,^18]pentacosa-1(24),2(6),4,9,11,13,15,17,21(25),22-decaen-22-amine]	< 50	50 to 500	< 50	< 50	50 to 500	0.1 to 50	0.1 to 50	0.1 to 50	50 to 500	50 to 500	A (bin A for very high selectivity, ratio >30-fold)	A (bin A for very high selectivity, ratio >30-fold)	D (bin D for low selectivity, ratio <1)	C (bin C for moderate selectivity, ratio ≥1)
